Results from patent publication US9206229B2, “Bortezomib esters and formulations thereof” (CHEMI S.P.A., priority 2012, dated 2015).
Read-outs that look alike come from different tables or passages of the source.

Tests used:
[1] = Stability tests of (5+5) bis bortezomib tartrate III in solid form (HPLC purity); type: physicochemical
Protocol: (5+5) Bis-bortezomib tartrate III, prepared as described in example 2, and the solid formulations containing (5+5) bis-bortezomib tartrate III, prepared as described in examples 3 and 4, were put into glass vials with screw plug and hermetic closure and undergone stability tests under the following conditions: […]
temperature 25° C. and 60% relative humidity temperature 40° C. and 75% relative humidity
The HPLC method used for the purity analysis was the following:
• UV Detector: SPD 10AVP • auto-sampler: SIL-ADVP Wavelength: 270 nm Column: Biobasic-18-Peek Bio-inert • length: 250 mm • I.D.: 2.1 mm • Particle size: 5 μm • (thermo scientific Cat.N.72105-252168 or equivalent) Injection: 3 μl Column temperature: room Sampler temperature: room Flow rate: 0.3 ml/min Mobile phase: eluent A: 95% gradient • Eluent B: 5% Analysis time: 60 minutes Eluent A: 0.1% v/v formic acid in water for HPLC Eluent B: 0.1% v/v formic acid in acetonitrile for gradient Diluent: acetonitrile:water for HPLC=80:20 Blank: diluent Gradient program:
Weigh about 50 mg sample and transfer the substance into a 100 ml flask. Dissolve and bring to volume with diluent. Sonicate up to complete dissolution (analyte content about 0.5 mg/ml).
Calculate the percentage of each known and unknown impurity as percentage area by using the following formula (peaks of the blank and peaks with area <0.05% to be ignored).
[formula] Axc: peak area of the impurity in the sample Atot: total area of the peaks of the chromatogram Purity(A%)=100−Σ1Imp (i) The peak corresponding to bortezomib is eluted at 28 minutes±2.
In the following tables the data obtained from the stability tests after two and four weeks are reported.

[2] = Stability tests of powders stored at 40° C. for months (examples 12, 14, 17), HPLC purity; type: physicochemical; conditions: powder
Protocol: Samples of the powder obtained in example 11 were stored in glass vials with screw cap and hermetic closure and undergone stability tests at 40° C. and 75% relative humidity. Their purity was checked during the time. In the following table the purity data of the samples under stability test obtained by using the HPLC method described in example 9 are reported.
Samples of the powder obtained in example 13 were stored in glass vials with screw cap and hermetic closure and undergone stability tests at 40° C. and 75% relative humidity. In the following table the purity data obtained by using the HPLC method described in example 9 are reported.
In the following table the data of the HPLC purity analysis of the powder at time 0 and after 1 month, 2 months and 3 months of storage in glass vials with screw plug and hermetic closure at 40° C. are reported.

[3] = cited from earlier work
[4] = 2 weeks 25° C., 60% relative humidity
[5] = 2 weeks 40° C., 75% relative humidity
[6] = 2 months 40° C. (75% relative humidity stated in examples 12, 14)
[7] = 3 months 40° C. (75% relative humidity stated in examples 12, 14)
[8] = 1 month 40° C. (75% relative humidity stated in examples 12, 14)

| SMILES | HPLC peak area, relative retention time 0.87 (retention time 23.58 min) [2, 6] [A%] | HPLC peak area, relative retention time 1.037 (retention time 28.00 min) [2, 6] [A%] | HPLC peak area, relative retention time 1.07 (retention time 28.77 min) [2, 6] [A%] | HPLC purity, peak at relative retention time 1.00 (retention time 27.00 min) [2, 6] [A%] | HPLC peak area, relative retention time 0.87 (retention time 23.58 min) [2, 7] [A%] | HPLC peak area, relative retention time 0.95 (retention time 25.78 min) [2, 7] [A%] | HPLC peak area, relative retention time 1.037 (retention time 28.00 min) [2, 7] [A%] | HPLC purity, peak at relative retention time 1.00 (retention time 27.00 min) [2, 7] [A%] | HPLC peak area, relative retention time 1.037 (retention time 28.00 min) ([2]; t0) [A%] | HPLC purity, peak at relative retention time 1.00 (retention time 27.00 min) ([2]; t0) [A%] | also measured |
| --- | --- | --- | --- | --- | --- | --- | --- | --- | --- | --- | --- |
| CC(C)C[C@H](NC(=O)C(Cc1ccccc1)NC(=O)c1cnccn1)B1OC(=O)C(C2OB([C@H](CC(C)C)NC(=O)C(Cc3ccccc3)NC(=O)c3cnccn3)OC2=O)O1 (stereo partly drawn) [Example 2, (5+5) Bis-Bortezomib L-Tartrate III] |  |  |  |  |  |  |  |  |  |  | HPLC peak area, relative retention time 0.91 (retention time 24.57 min) [1, 4]: 0.02 A%; HPLC peak area, relative retention time 0.95 (retention time 25.78 min) [1, 4]: 0.02 A%; HPLC peak area, relative retention time 1.07 (retention time 28.77 min) [1, 4]: 0.01 A%; HPLC purity, peak at relative retention time 1.00 (retention time 27.00 min) [1, 4]: 99.94 A%; HPLC peak area, relative retention time 0.95 (retention time 25.78 min) [1, 5]: 0.18 A%; HPLC peak area, relative retention time 1.07 (retention time 28.77 min) [1, 5]: 0.01 A%; HPLC purity, peak at relative retention time 1.00 (retention time 27.00 min) [1, 5]: 99.82 A%; HPLC peak area, relative retention time 0.91 (retention time 24.57 min) ([1]; t0): 0.02 A%; HPLC peak area, relative retention time 0.95 (retention time 25.78 min) ([1]; t0): 0.07 A%; HPLC peak area, relative retention time 1.07 (retention time 28.77 min) ([1]; t0): 0.01 A%; HPLC purity, peak at relative retention time 1.00 (retention time 27.00 min) ([1]; t0): 99.90 A% |
| CC(C)C[C@H](NC(=O)C(Cc1ccccc1)NC(=O)c1cnccn1)B1OC(=O)C(C2OB([C@H](CC(C)C)NC(=O)C(Cc3ccccc3)NC(=O)c3cnccn3)OC2=O)O1 (stereo partly drawn) [Example 11, (5+5) Bis Bortezomib L-Tartrate III] | 0.15 | 0.02 | 0.04 | 99.67 | 0.66 | 0.07 | 0.38 | 98.72 | 0.01 | 99.99 | HPLC peak area, relative retention time 1.07 (retention time 28.77 min) [2, 7]: 0.18 A% |
| CC(C)C[C@H](NC(=O)[C@H](Cc1ccccc1)NC(=O)c1cnccn1)B1OC(=O)[C@@H]([C@H]2OB([C@H](CC(C)C)NC(=O)[C@H](Cc3ccccc3)NC(=O)c3cnccn3)OC2=O)O1 [Example 13, (5+5) Bis Bortezomib L-Tartrate III] | 0.61 | 0.34 | 0.13 | 98.85 | 0.07 | 0.04 | 0.02 | 99.85 | 0.02 | 99.94 | HPLC peak area, relative retention time 0.87 (retention time 23.58 min) [2, 8]: 0.05 A%; HPLC peak area, relative retention time 1.037 (retention time 28.00 min) [2, 8]: 0.02 A%; HPLC purity, peak at relative retention time 1.00 (retention time 27.00 min) [2, 8]: 99.93 A%; HPLC peak area, relative retention time 0.95 (retention time 25.78 min) [2, 6]: 0.07 A%; HPLC peak area, relative retention time 0.87 (retention time 23.58 min) ([2]; t0): 0.02 A% |
| CC(C)C[C@H](NC(=O)[C@H](Cc1ccccc1)NC(=O)c1cnccn1)B(O)O [bortezomib] |  |  |  |  |  |  |  |  |  |  | time for which stable on storage ([3]; stored at 2-8° C.): 3-6 months; HPLC purity ([3]; stored at −20° C. for more than 2 years): > 97%; time for which stable on storage ([3]; stored at −20° C.): more than 2 years |
